The text below walks through data of PubChem BioAssay AID1963827 (Molecular Pharmacology Branch, DTP, NCI, 2024).

Values joined by “and” are separate entries in the source; they are usually repeats but may differ in a detail not shown here. Equal values may be shown once.

The assay relates to 994946-033-R-J1-PDC complex spheroid viability. The assay can be described thus: Anticancer human tumor 994946-033-R-J1-PDC patient-derived melanoma cell line growth inhibition [POLQ]. Conditions: for viability, T/C: stronger effect = lower value. The method, then:
Multicellular complex tumor spheroid response to Polymerase (POL) inhibitors (novobiocin, ART-558, RP6685) in combination with a variety of drugs and investigational agents in selected tumor cell lines
The POL inhibitors (novobiocin, ART-558, and RP6685) were evaluated both individually and in combination with standard of care and investigational anticancer small molecules within a complex spheroid model of solid tumors. . Complex spheroids include a stromal component modeled by human endothelial cells (HUVEC) and fibroblasts modeled by human mesenchymal stem cells (MSCs). The concentration ranges selected for each drug and investigational agent were based upon clinically achievable concentrations if the clinical Cmax of the agent was known.
Compounds. The drugs and investigational agents: novobiocin (NSC847541), ART-558 (NSC835418), RP-6685 (NSC848927), peposertib (NSC802822), ceralasertib (NSC780249), elimusertib (NSC800525), camonsertib (NSC841442), AZD-1390 (NSC803789), olaparib (NSC753686), talazoparib (NSC767125), rucaparib (NSC756644), sotorasib (NSC818433), MRTX-1133 (NSC836407), SN-38 (NSC673596), topotecan (NSC609699), epotoside (NSC141540), doxorubicin (NSC123127), gemcitabine (NSC613327), 5-fluorouracil (NSC19893), paclitaxel (NSC125973), vemurafenib (NSC761431), MSA-2 (NSC828583), SN-011 (NSC837082), adavosertib (NSC754352), prexasertib (NSC758257), carboplatin (NSC241240) and oxaliplatin (NSC266046), were obtained from the National Cancer Institute (NCI) Developmental Therapeutics Program Chemical Repository (21). The FDA-approved anticancer drug set is available from the Developmental Therapeutics Program at https://dtp.cancer.gov/organization/dscb/obtaining/. […] The stock solutions were prepared in dimethyl sulfoxide (DMSO, Sigma-Aldrich, St. Louis, MO, cat. D2650), except for the platinum compounds which were prepared in saline (Quality Biological, Gaithersburg, MD, cat. 114-055-101), at 800-fold the tested concentration and stored at -70 degrees C prior to their use. All drugs and investigational agents were tested over a range starting from a high concentration at or near the clinical Cmax and decreasing in half-log increments. If the clinical Cmax for an agent had not been determined, the highest concentration tested was 10 microM, except for SN-38, which was tested at a high concentration of 1 microM.
Cell Culture. All cells were maintained in an incubator at 37 degrees C and 5% CO2 with 95% humidity. The PDC lines were cultured according to standard operating procedures established by the NCI PDMR (https://pdmr.cancer.gov). Table 3 of the manuscript, lists the cell lines along with the number of the three cell types plated to form the mct-spheroids and media for tumor cell growth. After thawing, all PDC lines, except 997537-175-T-J1-PDC and 415267-285-R-J2-PDC, were cultured in Matrigel-coated flasks prepared with a working solution of 1X Ham's F-12 nutrient mix, without supplementation (Thermo Fisher Scientific, cat. 11765054), 100 U/mL penicillin-streptomycin (Thermo Fisher Scientific, cat. 15140122), and 2.5% Matrigel (Corning Inc., Corning, NY, cat. 354248) for the first three passages. The two PDC lines 997537-175-T-J1-PDC and 415267-285-R-J2-PDC were cultured on uncoated flasks. The 857933-349-R-J2-PDC line was cultured in 6C/Colon 1B media containing advanced DMEM/F-12 (Thermo Fisher Scientific, cat. 12634028), 10 mM HEPES (Thermo Fisher Scientific, cat. 15630080), 1X GlutaMAX supplement (Thermo Fisher Scientific, cat. 35050061), 0.1 mg/mL primocin (InvivoGen, San Diego, CA, cat. ant-pm-2), 10% defined fetal bovine serum, heat inactivated (HyClone Laboratories Inc., Logan, UT, cat. SH30070.03HI), 50% L-WRN conditioned media (ATCC, cat. CRL-3276), 1.25 mM N-Acetyl-L-cysteine (Sigma-Aldrich, cat. A9165), 10 mM nicotinamide (Sigma-Aldrich, cat. N0636), 1X B-27 supplement (Thermo Fisher Scientific, cat. 17504044), 1X N-2 supplement (Thermo Fisher Scientific, cat. […]
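Note: spheroids exposed to drugs for 7 days.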

`CC1COCCN1c1cc(-c2ccnn2C)c2ccnc(-c3ccn[nH]3)c2n1` (stereo unspecified): the viability, T/C – broadly, the ratio of treated to control – runs as follows: (compound 0.0316 µM) 68% and 74.9% and 58.3%; (compound 0.1 µM) 37.9% and 28.1% (2×); (compound 0.316 µM) 24.9% and 25.2% and 20.4%; (compound 1 µM) 17.2% and 25.2% and 29.2%; (compound 3.16 µM) 15.5% and 20.5% and 13.3%; (compound 10 µM) 10.3% and 16% and 14.4%. Moreover, for the setting “curve of compound”, the IC50 (commonly the concentration at which inhibition is half-maximal) was 0.064 µM and 0.0587 µM and 0.0437 µM.

Take `CC1COCCN1c1cc(-c2ccnn2C)c2ccnc(-c3ccn[nH]3)c2n1` (stereo unspecified) + COC1C(OC(N)=O)C(O)C(Oc2ccc3c(O)c(NC(=O)c4ccc(O)c(CC=C(C)C)c4)c(=O)oc3c2C)OC1(C)C: the IC50 by setting is: (curve of first compound, second compound 0.0316 µM) 0.0482 µM; (curve of first compound, second compound 0.1 µM) 0.0792 µM; (curve of first compound, second compound 0.316 µM) 0.151 µM; (curve of first compound, second compound 1 µM) 0.077 µM; (curve of first compound, second compound 3.16 µM) 0.057 µM; (curve of first compound, second compound 10 µM) 0.0584 µM. Further, the viability, T/C is 58.2% (second compound 0.0316 µM, first compound 0.0316 µM); 33.9% (second compound 0.0316 µM, first compound 0.1 µM); 31.6% (second compound 0.0316 µM, first compound 0.316 µM); 18.4% (second compound 0.0316 µM, first compound 1 µM); 20.4% (second compound 0.0316 µM, first compound 3.16 µM); 11.8% (second compound 0.0316 µM, first compound 10 µM). Also, the viability, T/C runs as follows: (second compound 0.1 µM, first compound 0.0316 µM) 107%; (second compound 0.1 µM, first compound 0.1 µM) 35.2%; (second compound 0.1 µM, first compound 0.316 µM) 21.5%; (second compound 0.1 µM, first compound 1 µM) 30.3%; (second compound 0.1 µM, first compound 3.16 µM) 16.8%; (second compound 0.1 µM, first compound 10 µM) 12.3%. The viability, T/C runs as follows: (second compound 0.316 µM, first compound 0.0316 µM) 72.3%; (second compound 0.316 µM, first compound 0.1 µM) 60.4%; (second compound 0.316 µM, first compound 0.316 µM) 31.5%; (second compound 0.316 µM, first compound 1 µM) 22%; (second compound 0.316 µM, first compound 3.16 µM) 24.5%; (second compound 0.316 µM, first compound 10 µM) 13.6%. In addition, the viability, T/C runs as follows: (second compound 1 µM, first compound 0.0316 µM) 100%; (second compound 1 µM, first compound 0.1 µM) 34.5%; (second compound 1 µM, first compound 0.316 µM) 23.9%; (second compound 1 µM, first compound 1 µM) 23.2%; (second compound 1 µM, first compound 3.16 µM) 20.8%; (second compound 1 µM, first compound 10 µM) 12.6%. Further, the viability, T/C by setting is: (second compound 3.16 µM, first compound 0.0316 µM) 76.4%; (second compound 3.16 µM, first compound 0.1 µM) 24.7%; (second compound 3.16 µM, first compound 0.316 µM) 18.2%; (second compound 3.16 µM, first compound 1 µM) 13.4%; (second compound 3.16 µM, first compound 3.16 µM) 14.9%; (second compound 3.16 µM, first compound 10 µM) 13.5%. The viability, T/C (second compound 10 µM, first compound 0.0316 µM) is 69.2%; the viability, T/C (second compound 10 µM, first compound 0.1 µM) is 32%; the viability, T/C (second compound 10 µM, first compound 0.316 µM) is 21.2%; the viability, T/C (second compound 10 µM, first compound 1 µM) is 32%; the viability, T/C (second compound 10 µM, first compound 3.16 µM) was 18.5%; the viability, T/C (second compound 10 µM, first compound 10 µM) was 10.3%.

For the compound `CC(C)n1c(=O)n(C)c2cnc3cc(F)c(-c4ccc(OCCCN5CCCCC5)nc4)cc3c21`, the viability, T/C is 95.4% and 78.5% and 82.5% (compound 0.0316 µM); 86.1% and 90.5% and 82.5% (compound 0.1 µM); 93.8% and 117% and 70.9% (compound 0.316 µM); 86.5% and 77.2% and 84.3% (compound 1 µM); 56.9% and 68.1% and 62.2% (compound 3.16 µM); 21.2% and 41.8% and 25.7% (compound 10 µM). Besides, the 50% inhibitory concentration (IC50) (curve of compound) is 3.94 µM and 6.87 µM and 4.65 µM.
